According to US5756683A, “Immunological detection method” (Novartis Finance Corporation, priority 1991, dated 1998):

Target: MAb 4197-70-12
Experiment: two-step competitive ELISA; inhibition of MAb binding to carrier-bound antigen (cross-reactivity)
Parameters: species or system mouse (Balb/c)
Conditions: for I50 (inhibitor concentration that reduces the ELISA signal by 50% in comparison with the control): competitive ELISA; for cross-reactivity: (antigen conc. for 50% inhibition/concentration of the antigen analog for 50% inhibition) × 100: relative to compound of formula (II) = 100
Experimental: [antigen concentration for 50% inhibition (I50)/concentration of the
antigen analogs for 50% inhibition (I50)]×100.
The I50 value can be determined, for example, by means of a competitive ELISA assay (see Example 8).
The detection of a compound of formula (II) can be effected by means of a two-step competitive ELISA test.
BSA-conjugated hapten, prepared in accordance with Example 1.2.1, in a 50 mM sodium carbonate buffer (pH 9.6) (200 ng of BSA-conjugated hapten/100 μl of 50 mM sodium carbonate buffer) is first of all adsorbed on microtitre plates (for example Dynatech, type M 129A) and incubated overnight at a temperature of 4° C.
The plates are then washed five times with PBS buffer enriched with 0.1% (v/v) polysorbate 20 (Tween 20) (PBS Tween).
The remaining free binding sites of the solid carrier material are then blocked by the addition of PBS-BSA in the form of a 1% (w/v) solution. After incubation for two hours at 22° C. the plates are washed again with PBS Tween (0.1%).
50 μl of the supernatant of the previously cloned hybridoma cells (in a dilution of from 1:1000 to 1:2000) or 50 μl of the previously purified monoclonal antibodies (40-120 ng/ml) are incubated a) with 950 μl of a standard solution containing an increasing amount of antigen [compound of formula (II)] or of antigen analog, b) with antigen-containing water samples or c) with antigen-containing soil extracts. [All dilutions are carried out in PBS Tween (0.1%)].
After an incubation period of 1 hour at room temperature (22° C.), 200 μl of the antigen/antibody mixture are added to each well in the microtitre plate and the whole batch is incubated for a further one hour. The wells are then washed five times with PBS Tween (0.1%) and charged with 100 μl/well of goat anti-mouse IgG antibody that is conjugated to alkaline phosphatase (dilution 1:1500), and incubated for a period of 1.5 hours.
After washing again, 150 μl/well of the substrate p-nitrophenyl phosphate dissolved in 1 mg/ml of diethanolamine buffer (1 mM, pH 9.8, enriched with 0.5 mM MgCl2 ×6H2 O) are added to the wells.
The intensity of the colour reaction that has occurred is determined at a wavelength of 405 nm. […] All the samples are determined in triplicate.
In order to determine the amount of antigen [[…]] present in a sample, first of all a calibration curve is produced, B/Bo×100 being plotted against the concentration of inhibitor. (Bo represents the absorption capacity measured without the addition of an antigen inhibitor to the antibody, and B is the absorption capacity when antigen inhibitors at various concentrations are added). The I50 value indicates the concentration of the antigen at which the binding of antibody to the solid phase is inhibited by 50%. The I50 value is determined using an ENZFITTER (Leatherbarrow, Elsevier-Biosoft) curve-calculation program based on a four-parameter logistical curve (Raab GM, 1983) and specially adapted to the prevailing conditions. The quantitative determination of antigen in soil or water samples within the context of ELISA is also carried out using the ENZFITTER program, the adaptation of the curve being based on standards that run on any microtitre plate.
^a) Inhibitor concentration that reduces the ELISA signal by 50% in
comparison with the control.
^b) (antigen conc. for 50% inhibition/concentration of the antigen
analog for 50% inhibition) × 100.

I50 (inhibitor concentration that reduces the ELISA signal by 50% in comparison with the control) | cross-reactivity: (antigen conc. for 50% inhibition/concentration of the antigen analog for 50% inhibition) × 100 | cross-reactivity in words | SMILES
> 1000 ng/mL | < 0.1% |  | COc1nc(C)nc(NC(=O)NS(=O)(=O)c2ccc(O)cc2OCCCl)n1 [A]
> 1000 ng/mL | < 0.1% | no cross-reactivity | COc1nc(C)nc(NC(=O)NS(=O)(=O)c2ccccc2OCCCl)n1 [B]
> 1000 ng/mL | < 0.1% |  | COC(=O)c1ccccc1S(=O)(=O)NC(=O)Nc1nc(OC(F)F)cc(OC(F)F)n1 [D]

SMILES | I50 (inhibitor concentration that reduces the ELISA signal by 50% in comparison with the control) | cross-reactivity: (antigen conc. for 50% inhibition/concentration of the antigen analog for 50% inhibition) × 100 | cross-reactivity in words
COc1nc(C)nc(NC(=O)NS(=O)(=O)c2ccccc2CCC(F)(F)F)n1 [Compound of formula (II), N-[2-(3,3,3-trifluoropropyl)-phenylsulfonyl]-N'-(4-methoxy-6-methyl-1,3,5-triazin-2-yl)urea] | 0.8 ng/mL | 100% | 
